Assay results reported in patent US5348956A, “Substituted cyclopropylamino-1,3,5-triazines” (UCB S.A., priority 1991, dated 1994).

Assays:
[1] = multiple-trial passive avoidance: learning; type: in vivo, male Sprague-Dawley rats
Experimental: To evaluate whether a compound can promote learning, the following test is carried out. […] Rats which remain on the mat for this period have acquired the avoidance reflex and are replaced in their original cage without receiving the electric shock. […] The results obtained in the test used to evaluate learning are given in columns 3 and 4. […] The results were analyzed by the Student test.

serotonergic activity = experiment: "wet dog shake" (WDS) behavior, serotonergic activity; type: in vivo, male Sprague-Dawley rats; conditions: counted over 30 minutes
Experimental: A decrease in serotonergic activity has been correlated with the occurrence of affective disorders, such as depression and anxiety. […] The test is carried out in the morning on male Sprague-Dawley rats (±180 g), divided the previous day into groups of 8 animals in residence cages. The cage used for the tests is a transparent enclosure of 12×24×30 cm in height, the floor of which is covered with a layer of sand. The compounds to be tested, dissolved either in physiological salt solution or in a citrate buffer of pH 5, are administered intraperitoneally in a different dose for each group treated. The control groups receive an intraperitoneal injection of the same vehicle (either physiological salt solution or citrate buffer). […] The mean values of the results are calculated and analyzed statistically by the Mann-Whitney method. The mean values of the number of shakes obtained for the compounds according to the invention administered intraperitoneally at the doses indicated (in mg/kg) are given in Table V below.

[2] = test system: longitudinal muscles of the ileum contracted by histamine; experiment: potentiation of the myorelaxing effect of isoprenaline on the ileum; type: cell-based, Dunkin-Hartley guinea-pigs; conditions: with isoprenaline 10^-7 mole/l; histamine 3.2 μmoles/l
Experimental: (cf. R. A. TURNER, "Screening Methods in Pharmacology", Ed. Acad. Press, San Diego, 1965, chapter IV, pages 43-47). […] Inhibition cycle: When the successive contractions induced by the histamine injections have become reproducible, the compound to be tested is injected immediately after the second wash. The contraction induced by the following injection of histamine is measured and compared with the average of the three preceding contractions caused by the repeated injections of histamine (control contractions). From the result obtained, the percentage inhibition of the contraction is calculated. Several cycles of histamine injection are then performed again, until the contractions of the muscle become reproducible again; the muscle is then ready for testing of another compound. The potentiating effect of a compound is measured in the course of a so-called "potentiation" cycle, which comprises three successive inhibition cycles. […] In the course of the second inhibition cycle, the percentage inhibition of the contraction obtained with the compound to be tested, injected alone at a given dose, is determined. In the third inhibition cycle, isoprenaline and the compound to be tested are injected simultaneously, and the percentage inhibition of the contraction is calculated for the dose used of the compound tested. The same experiments are repeated for each of the doses of the compounds tested.

cAMP in PMN granulocytes = experiment: increase in the level of cAMP in PMN granulocytes; type: cell-based, Rat; conditions: […]10^-6 mole per liter; PGE1 10^-6 mole/liter; control 4.3
Text: Polymorphonuclear neutrophil granulocytes (PMN) are cells which are mobilized during inflammatory phenomena and which can be stimulated by various compounds, such as, for example, formylmethionyl-leucylphenylalanine (FMLP) or prostaglandins E (PGE1). The PMN granulocytes respond to these extracellular stimuli with an activation of the oxygen metabolism with release of toxic oxygenated metabolites. An excessive response of the PMN granulocytes may be the cause of a painful inflammation and is also accompanied by a reduction in the level of cyclic adenosine monophosphate (cAMP) in these granulocytes. […] The reaction is then stopped by addition of 1 ml of propanol. After centrifugation at 15,000 g for 3 minutes, the supernatant is recovered and evaporated and the amount of cAMP in the residue is determined by radioimmunological assay according to the process recommended by the supplier of the reagent used for this purpose (Amersham). A control test is carried out under the same conditions, but in the absence of the compound to be tested.

SMILES | Minimum potentiating dose (MPD) [2] | Amount of cAMP produced (cAMP in PMN granulocytes) | Average number of shakes (serotonergic activity; 1.0 mg/kg i.p.) | further results
COC1CN(c2nc(NC3CC3)nc(C3CC3)n2)C1 [Compound 14] | 1.0 µmol/L |  |  | Learning, average number of trials, group 2 ([1]; 2.6 mg/kg i.p.): 1.5 trials; Average number of shakes (serotonergic activity; 0.8 mg/kg i.p.): 2.1 ± 0.7 shakes
CCCc1nc(NC2CC2)nc(N2CC3CCC(C2)O3)n1 [Compound 11] | 0.032 µmol/L | 16.2 picomoles per 10^7 cells |  | Learning, average number of trials, group 2 ([1]; 3.3 mg/kg i.p.): 1.8 trials; Average number of shakes (serotonergic activity; 1.1 mg/kg i.p.): 4.3 ± 1.4 shakes
CCCc1nc(NC2CC2)nc(N2CCC(O)CC2)n1 [Compound 5] | 1.0 µmol/L | 11.6 picomoles per 10^7 cells |  | Learning, average number of trials, group 2 ([1]; 2.8 mg/kg i.p.): 2.3 trials; Average number of shakes (serotonergic activity; 2.8 mg/kg i.p.): 8.4 ± 1.6 shakes
C1CC1Nc1nc(C2CC2)nc(N2CC3CCC(C2)O3)n1 [Compound 16] | 0.032 µmol/L |  | 10.6 ± 1.8 shakes | Learning, average number of trials, group 2 ([1]; 3.25 mg/kg i.p.): 2.2 trials
CC(C)c1nc(NC2CC2)nc(N2CC3CCC(C2)O3)n1 [Compound 12] | 0.01 µmol/L | 16.8 picomoles per 10^7 cells |  | Learning, average number of trials, group 2 ([1]; 1.0 mg/kg i.p.): 1.7 trials
CCc1nc(NC2CC2)nc(N2CCOCC2)n1 [Compound 2] | 1.0 µmol/L |  | 10.0 ± 3.5 shakes | Learning, average number of trials, group 2 ([1]; 1.0 mg/kg i.p.): 2.7 trials
CCCc1nc(NC2CC2)nc(N(CCO)CCO)n1 [Compound 6] | 1.0 µmol/L | 14.6 picomoles per 10^7 cells | 1.9 ± 0.5 shakes | 
OCCN(CCO)c1nc(NC2CC2)nc(C2CC2)n1 [Compound 7] | 0.32 µmol/L | 15.8 picomoles per 10^7 cells |  | Learning, average number of trials, group 2 ([1]; 2.8 mg/kg i.p.): 1.9 trials; Average number of shakes (serotonergic activity; 2.8 mg/kg i.p.): 7.9 ± 1.8 shakes
C1CC(c2nc(NC3CC3)nc(N3CCOCC3)n2)C1 [Compound 4, 2-cyclobutyl-4-cyclopropylamino-6-morpholino-1,3,5-triazine] | 0.032 µmol/L | 17.7 picomoles per 10^7 cells |  | Learning, average number of trials, group 2 ([1]; 2.8 mg/kg i.p.): 1.9 trials; Average number of shakes (serotonergic activity; 2.8 mg/kg i.p.): 10.6 ± 4.3 shakes
OC1CN(c2nc(NC3CC3)nc(C3CC3)n2)C1 [Compound 13] | 1.0 µmol/L |  |  | Learning, average number of trials, group 2 ([1]; 2.5 mg/kg i.p.): 2.1 trials; Average number of shakes (serotonergic activity; 2.5 mg/kg i.p.): 5.6 ± 1.8 shakes
CCCc1nc(NC2CC2)nc(N2CCOCC2)n1 [Compound 1, 2-Cyclopropylamino-4-morpholino-6-n-propyl-1,3,5-triazine] | 0.032 µmol/L | 21.0 picomoles per 10^7 cells | 7.8 ± 1.6 shakes | Learning, average number of trials, group 2 ([1]; 3.0 mg/kg i.p.): 1.4 trials
C1CN(c2nc(NC3CC3)nc(C3CC3)n2)CCO1.Cl [Compound 3, 2-cyclopropyl-4-cyclopropylamino-6-morpholino-1,3,5-triazine hydrochloride] | 0.032 µmol/L | 23.2 picomoles per 10^7 cells | 11.9 ± 2.7 shakes | Learning, average number of trials, group 2 ([1]; 1.0 mg/kg i.p.): 1.9 trials; Average number of shakes (serotonergic activity; 0.3 mg/kg i.p.): 5.1 ± 1.0 shakes
